# Marks after values point to notes of the source that are not given here.
# Columns and labels:
# [1] = tested on: mononuclear leukocytes; test: mammalian T-lymphocyte blastogenesis assay, non-human primate (Example 75); assay type: cell-based
# Description: (§1) The compound prepared in Example 30, namely (S)-ethyl 1-(2-thiopheneacetyl)-3-peridinecarboxylate, was further evaluated for in vitro T-lymphocyte blastogenic activity from mammalian species other than avian.
# (§2) The mammalian blastogenesis assays were conducted with the same protocol as the vian assays with the following exceptions:
# (§3) 1. Only mononuclear leukocytes are used for the mammalian assay. The cells are obtained from whole blood by differential centrifugation using Histopague 1.077 (Sigma Chemical Company, St. Louis, Mo).
# (§4) 2. 0.5% Fetal Bovine Serum (FBS) [GIBCOBRL, Grand Island N.Y.] is added to RPMI 1640 medium. Exception: Non-human primate plasma is used instead of FBS at 5 ml/liter to RPMI 1640 medium.
# (§5) 3. 5×10^5 cells/well were used with the mammalian assays.
# [2] = tested on: mononuclear leukocytes; test: mammalian T-lymphocyte blastogenesis assay, porcine (Example 75); assay type: cell-based
# Description: as §1, §2, §3, §4, §5
# [3] = tested on: E. coli; test: colibacillosis infection model in broiler chickens, Trial B (Example 78); assay type: in vivo, chicken
structure (smiles),measurement,setting,value
"CCOC(=O)[C@H]1CCCN(C(=O)Cc2cccs2)C1 [Example 30, (S)-Ethyl 1-(2-Thiopheneacetyl)-3-piperidinecarboxylate]",MSC,[1],10 μg μg/ml
same,MTC,[1],1 mg/mL
same,MSC,[2],10 μg μg/ml
same,MTC,[2],1 mg/mL
same,% Colibacillosis-associated Mortality,[3]; 2 μg/chick subcutaneous,5%
same,Average Weight Gain/Bird (lbs),[3]; 2 μg/chick subcutaneous,2.53 lb (1.15 kg)
same,Feed/Gain,[3]; 2 μg/chick subcutaneous,1.56
same,% Colibacillosis-associated Mortality,[3]; 12.5 μg/chick subcutaneous,2.8* %
same,% Total Mortality,[3]; 12.5 μg/chick subcutaneous,10* %
same,Average Weight Gain/Bird (lbs),[3]; 12.5 μg/chick subcutaneous,2.44 lb (1.11 kg)
same,Feed/Gain,[3]; 12.5 μg/chick subcutaneous,1.59
same,% Colibacillosis-associated Mortality,[3]; 25 μg/chick subcutaneous,6.8%
same,% Total Mortality,[3]; 25 μg/chick subcutaneous,14.3%
same,Average Weight Gain/Bird (lbs),[3]; 25 μg/chick subcutaneous,2.49 lb (1.13 kg)
same,Feed/Gain,[3]; 25 μg/chick subcutaneous,1.57

# Source: patent publication US6664271B1, “Immunopotentiator agents” (Eli Lilly and Company, priority 1999, dated 2003)
